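Interpolation was linear, between the two tested concentrations surrounding the appropriate level; five concentrations were tested over 48 hours in 96-well plates. The concentration for 50% growth inhibition is given as GI50.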 The source made the active and inactive calls. Rule as the data show it: active = GI50 up to about 1.1 µM and inactive = higher.
Experiments:
Test in all cases: NCI-60 cell line screen, 48 h
[1] = tested on: SW-620
[2] = tested on: HCT-116
[3] = tested on: MDA-N
[4] = tested on: BT-549
[5] = tested on: DU-145
[6] = tested on: UACC-257
[7] = tested on: SR
[8] = tested on: TK-10
[9] = tested on: HOP-92
[10] = tested on: NCI-H23
[11] = tested on: SK-MEL-5
[12] = tested on: SK-MEL-28
[13] = tested on: HCC 2998
[14] = tested on: IGROV-1
[15] = tested on: OVCAR-3
[16] = tested on: NCI-H522
[17] = tested on: SNB-75
[18] = tested on: U-251
[19] = tested on: SK-MEL-2
[20] = tested on: SK-OV-3

Structure (SMILES) | GI50 [1] | GI50 [2] | GI50 [3] | GI50 [4] | GI50 [5] | GI50 [6] | GI50 [7] | GI50 [8] | GI50 [9] | GI50 [10] | GI50 [11] | GI50 [12] | GI50 [13] | GI50 [14] | GI50 [15] | GI50 [16] | GI50 [17] | GI50 [18] | GI50 [19] | GI50 [20]
NC(=O)CSc1nc2ccccc2c(=O)n1N | > 100 µM (inactive) | > 100 µM (inactive) | > 100 µM (inactive) | > 100 µM (inactive) | > 100 µM (inactive) | > 100 µM (inactive) | > 100 µM (inactive) | > 100 µM (inactive) | > 100 µM (inactive) | > 100 µM (inactive) | > 100 µM (inactive) | > 100 µM (inactive) | > 100 µM (inactive) | > 100 µM (inactive) | > 100 µM (inactive) | > 100 µM (inactive) | > 100 µM (inactive) | > 100 µM (inactive) | > 100 µM (inactive) | 
Cc1ccc2c(ccc3c[n+]4ccccc4c(C)c32)c1.[O-][Cl+3]([O-])([O-])[O-] | 0.962 µM (active) | 4.59 µM (inactive) | > 100 µM (inactive) | 1.15 µM (inactive) | 1.13 µM (inactive) | 1.34 µM (inactive) | 1.21 µM (inactive) | 23.4 µM (inactive) | 4.1 µM (inactive) | 1.32 µM (inactive) | 1.1 µM (active) | 3.17 µM (inactive) | 2.77 µM (inactive) | 8.04 µM (inactive) | 1.12 µM (active) | 1.59 µM (inactive) |  | 0.581 µM (active) | 1.39 µM (inactive) | 10.3 µM (inactive)
N=C(N)Nc1ccc(CC(N)C(=O)O)cc1 (configuration not stated) | > 12.5 µM (inactive) | > 12.5 µM (inactive) | > 12.5 µM (inactive) | > 12.5 µM (inactive) | > 12.5 µM (inactive) | > 12.5 µM (inactive) | > 12.5 µM (inactive) | > 12.5 µM (inactive) | > 12.5 µM (inactive) | > 12.5 µM (inactive) | > 12.5 µM (inactive) | > 12.5 µM (inactive) | > 12.5 µM (inactive) | > 12.5 µM (inactive) | > 12.5 µM (inactive) | > 12.5 µM (inactive) | > 12.5 µM (inactive) | > 12.5 µM (inactive) | > 12.5 µM (inactive) | > 12.5 µM (inactive)
COc1cc2c(cc1OC)C1c3ccccc3CCCN1CC2 (configuration not stated) | > 100 µM (inactive) | 36.4 µM (inactive) | > 100 µM (inactive) | > 100 µM (inactive) | > 100 µM (inactive) | > 100 µM (inactive) | > 100 µM (inactive) | > 100 µM (inactive) | 33 µM (inactive) | > 100 µM (inactive) | > 100 µM (inactive) | > 100 µM (inactive) | > 100 µM (inactive) | > 100 µM (inactive) | > 100 µM (inactive) | > 100 µM (inactive) | > 100 µM (inactive) | > 100 µM (inactive) | > 100 µM (inactive) | > 100 µM (inactive)
C[n+]1ccccc1/C1=c2\cc/c([nH]2)=C(\c2cccc[n+]2C)C2=N/C(=C(/c3cccc[n+]3C)C3C=CC(N3)/C(c3cccc[n+]3C)=C3/C=CC1=N3)C=C2 | 73.3 µM (inactive) | 46.3 µM (inactive) | > 100 µM (inactive) | > 100 µM (inactive) | > 100 µM (inactive) | > 100 µM (inactive) | 15.6 µM (inactive) | > 100 µM (inactive) | 90.6 µM (inactive) | > 100 µM (inactive) | 71.4 µM (inactive) | > 100 µM (inactive) | > 100 µM (inactive) | 92.9 µM (inactive) | 58.7 µM (inactive) | > 100 µM (inactive) |  | > 100 µM (inactive) | > 100 µM (inactive) | > 100 µM (inactive)
c1ccc2c(c1)CCN1CCc3c([nH]c4ccccc34)C21 (configuration not stated) | 36.2 µM (inactive) | 24.2 µM (inactive) | 25.1 µM (inactive) | 27.3 µM (inactive) | 40.6 µM (inactive) | 24.4 µM (inactive) | 24.4 µM (inactive) | 42 µM (inactive) | 22.2 µM (inactive) | 38.8 µM (inactive) | 15.1 µM (inactive) | 19.1 µM (inactive) | 17.2 µM (inactive) | 29.4 µM (inactive) | 24 µM (inactive) | 34 µM (inactive) | 24.9 µM (inactive) | 34.2 µM (inactive) | 23 µM (inactive) | 47 µM (inactive)
CC[C@@]1(O)C(=O)OCc2c1cc1n(c2=O)Cc2cc3cc(OC)ccc3nc2-1 | 0.0248 µM (active) | 0.0197 µM (active) | 0.142 µM (active) | 0.0308 µM (active) | 0.00439 µM (active) | 0.15 µM (active) | 0.00667 µM (active) | 3.01 µM (inactive) | 0.0114 µM (active) | 0.00902 µM (active) | 0.0211 µM (active) | 0.372 µM (active) | 0.0276 µM (active) | 0.106 µM (active) | 0.435 µM (active) | 0.0246 µM (active) | 0.00427 µM (active) | 0.00407 µM (active) | 0.16 µM (active) | 0.0498 µM (active)

Reference: ChEMBL document CHEMBL1201862, “PubChem BioAssay data set” (2004)
